Test results reported in patent publication US20160160267A1, “COMPOSITION FOR EVALUATING OR PREDICTING PATIENTS THERAPEUTIC RESPONSE TO METHORMIN” (SNU R&DB FOUNDATION, priority 2013, published 2016).

Columns and labels:
[1] = Metabolism-related index (body weight, fasting glucose, serum total cholesterol, HDL) in high-fat diet mouse; format: in vivo, mouse (C57BL/6); conditions: high-fat diet mice
Description: (§1) Basically, body weight and fasting glucose were confirmed once a week. To confirm impaired glucose tolerance, oral glucose tolerance test (OGTT) was conducted. And, total cholesterol, high-density lipoprotein (HDL), low-density lipoprotein (LDL) were analyzed in serum, and insulin concentration in blood was measured using flow cytometry. To grasp the expression degree of metabolic and inflammatory factors, liver, epididymal adipose tissue, small intestine were homogenized to extract total RNA, which was quantitatively analyzed by polymerase chain reaction (PCR). In the liver, AMPKα1 (AMP-activated protein kinase alpha 1), PPARα (Peroxisome proliferator-activated eceptor alpha), GLUT2 (Glucose transporter 2), G6Pase (Glucose 6-phosphatase) were measured; in the adipose tissue, adiponectin, leptin, MCP-1 (Monocyte chemoattractant protein-1), TNFα (Tumor necrosis factor alpha) IL-6 (Interleukin-6) were measured; and in the small intestine, MUC2 and MUC5 (Mucin genes) were measured. For comparative analysis of the expression degree, relative quantification using housekeeping gene GAPDH was applied, and statistical significance was confirmed with Mann-Whitney U test. As the primer for MUC5AC, QuantiTect® Primer Assay (Cat. no.: QT01161104, Qiagen) was used.

leptin = assay: Expression of leptin in epididymal adipose tissue, quantitative PCR relative to GAPDH; format: in vivo, mouse (C57BL/6); conditions: male, metformin during high-fat diet, P=0.004
Description: (§2) FIG. 4a to FIG. 5b comparatively analyze the amount of gene expression of internal control GAPDH and biomarkers using relative quantification method (2^−ΔΔCt(ΔΔCt=(Ct.Target−Ct.GAPDH)Group1−(Ct.Target−Ct.GAPDH)Group2)). Statistical significance is assessed by Mann-Whitney U Test. For quantification, SYBR qPCR was repeatedly conduced three times.
as §1, with “For comparative analysis of the expression degree, relative quantification using housekeeping gene GAPDH was applied, and statistical significance was confirmed with Mann-Whitney U test. As the primer for MUC5AC, QuantiTect® Primer Assay (Cat. no.: QT01161104, Qiagen) was used.” left out

[2] = Tissue inspection (tissue weights, H&E staining, steatosis); conditions: metformin during high-fat diet, compared to high-fat diet group
Description: Male and female C57BL/6 species of the same age of the week were purchased from Orientbio. […] Epididymis adipose tissue, liver, small intestine, pancreas, and blood were extracted, and among them, liver, small intestine, and pancreas were fixed to 4% paraformaldehyde to conduct hematoxylin and eosin (H&E) staining. Briefly, tissue was cut to 4 μm, stained with alum haematoxylin and rinsed with water flow. Thereafter, the colour was changed with 0.3% acid alcohol, followed by additional staining with eosin, dehydrating and fixing. The degree of steatosis and inflammation of the tissue was read by pathologist.

[3] = system: AMPKα1 (AMP-activated protein kinase alpha 1); assay: Expression of AMPKα1 in liver, quantitative PCR relative to GAPDH; format: in vivo, mouse (C57BL/6); conditions: female, metformin during high-fat diet, P=0.023
Description: as §2
as §1, with “For comparative analysis of the expression degree, relative quantification using housekeeping gene GAPDH was applied, and statistical significance was confirmed with Mann-Whitney U test. As the primer for MUC5AC, QuantiTect® Primer Assay (Cat. no.: QT01161104, Qiagen) was used.” left out

MUC2 = assay: Expression of mucin gene MUC2 in small intestine; format: in vivo, mouse (C57BL/6); conditions: female, after administration of metformin
Description: as §2
as §1, with “For comparative analysis of the expression degree, relative quantification using housekeeping gene GAPDH was applied, and statistical significance was confirmed with Mann-Whitney U test. As the primer for MUC5AC, QuantiTect® Primer Assay (Cat. no.: QT01161104, Qiagen) was used.” left out

[4] = system: GLUT2 (Glucose transporter 2); assay: Expression of GLUT2 in liver, quantitative PCR relative to GAPDH; format: in vivo, mouse (C57BL/6); conditions: female, metformin during high-fat diet, P=0.007
Description: as §2
as §1, with “For comparative analysis of the expression degree, relative quantification using housekeeping gene GAPDH was applied, and statistical significance was confirmed with Mann-Whitney U test. As the primer for MUC5AC, QuantiTect® Primer Assay (Cat. no.: QT01161104, Qiagen) was used.” left out

[5] = system: G6Pase (Glucose 6-phosphatase); assay: Expression of G6Pase in liver, quantitative PCR relative to GAPDH; format: in vivo, mouse (C57BL/6); conditions: male, metformin during high-fat diet
Description: as §2
as §1, with “For comparative analysis of the expression degree, relative quantification using housekeeping gene GAPDH was applied, and statistical significance was confirmed with Mann-Whitney U test. As the primer for MUC5AC, QuantiTect® Primer Assay (Cat. no.: QT01161104, Qiagen) was used.” left out

MUC5 = assay: Expression of mucin gene MUC5 in small intestine; format: in vivo, mouse (C57BL/6); conditions: female, after administration of metformin
Description: as §2
as §1, with “For comparative analysis of the expression degree, relative quantification using housekeeping gene GAPDH was applied, and statistical significance was confirmed with Mann-Whitney U test. As the primer for MUC5AC, QuantiTect® Primer Assay (Cat. no.: QT01161104, Qiagen) was used.” left out

PPARα = assay: Expression of PPARα in liver, quantitative PCR relative to GAPDH; format: in vivo, mouse (C57BL/6); conditions: female, metformin during high-fat diet, P=0.008
Description: as §2
as §1, with “For comparative analysis of the expression degree, relative quantification using housekeeping gene GAPDH was applied, and statistical significance was confirmed with Mann-Whitney U test. As the primer for MUC5AC, QuantiTect® Primer Assay (Cat. no.: QT01161104, Qiagen) was used.” left out

[6] = system: MCP-1 (Monocyte chemoattractant protein-1); assay: Expression of MCP-1 in epididymal adipose tissue, quantitative PCR relative to GAPDH; format: in vivo, mouse (C57BL/6); conditions: male, metformin during high-fat diet, P=0.008
Description: as §2
as §1, with “For comparative analysis of the expression degree, relative quantification using housekeeping gene GAPDH was applied, and statistical significance was confirmed with Mann-Whitney U test. As the primer for MUC5AC, QuantiTect® Primer Assay (Cat. no.: QT01161104, Qiagen) was used.” left out

[7] = system: TNFα (Tumor necrosis factor alpha); assay: Expression of TNFα in epididymal adipose tissue, quantitative PCR relative to GAPDH; format: in vivo, mouse (C57BL/6); conditions: female, metformin during high-fat diet, P=0.001
Description: as §2
as §1, with “For comparative analysis of the expression degree, relative quantification using housekeeping gene GAPDH was applied, and statistical significance was confirmed with Mann-Whitney U test. As the primer for MUC5AC, QuantiTect® Primer Assay (Cat. no.: QT01161104, Qiagen) was used.” left out

[8] = system: rumen microorganism communities; assay: Analysis of rumen microbiome in feces samples (16S rRNA V2-V3 pyrosequencing, UniFrac, PCoA, LEfSe); format: in vivo, mouse (C57BL/6)
Description: Total genome DNA of bacteria in the feces sample was extracted using a kit. The V2 region and the V3 region of 16S rRNA gene were amplified through PCR using bar coded universal primer as described in Table 3 and Table 4, and pyrosequencing was conducted using GS-FLX system. For the secured nucleotide sequence, data was analyzed using QIIME (Quantitative Insights Into Microbial Ecology) 1.5.0 (http://qiime.sourceforge.net). Before the sequence analysis, noise removal of the sequence data set was conducted, and low quality sequence less than 200 bp was removed. To the nucleotide sequence, OUT (Operational taxonomic units) was assigned based on 97% analogous level to conduct system analysis. For the nucleotide sequence obtained from each feces sample, UniFrac, PCoA (Principal Coordinate Analysis), LEfSe (LDA Effect Size) analysis were conducted for comparative analysis. And, based on the KEGG (Kyoto Encyclopedia of Genes and Genomes) pathway data from microbiome, PICRUSt (Phylogenetic Investigation of Communities by Reconstruction of Unobserved States) was conducted to predict a specifically increasing metabolic pathway.

[9] = 10 weeks after metformin administration
[10] = after administration of metformin (300 mg/kg daily, oral)
[11] = after administration of metformin during high-fat diet

CN(C)C(=N)NC(=N)N [metformin, N,N-Dimethylimidodicarbonimidic diamide]
high density lipoprotein (HDL) [1, 9]: significantly decreased
total cholesterol [1, 9]: significantly decreased
blood glucose (fasting glucose) [1, 10]: significantly decrease
body weight [1, 10]: significantly decrease
leptin expression in epididymal adipose tissue (leptin): increased
liver steatosis [2]: significant difference
weight of adipose tissue [2]: significantly decreased
weight of liver [2]: significantly decreased
AMPKα expression in liver [3]: decreased
expression degree of MUC2 in small intestine (MUC2): significantly increased
GLUT2 expression in liver [4]: decreased
G6Pase expression in liver [5]: significantly decreased
expression degree of MUC5 in small intestine (MUC5): significantly increased
PPARα expression in liver (PPARα): increased
MCP-1 expression in epididymal adipose tissue [6]: increased
TNFα expression in epididymal adipose tissue [7]: significantly decreased
proportion of phylum Proteobacteria [8, 11]: 2.1±2.8%
proportion of phylum Verrucomicrobia [8, 11]: 12.4±5.3%
proportion of phylum Bacteroidetes ([8]; high-fat diet, after administration of metformin): 77.5±8.7%
microbial diversity in feces ([8]; metformin administration during high-fat diet): decreased
microbial diversity in feces ([8]; metformin administration during normal diet): did not cause any change in diversity
Akkermansia abundance, at species level ([8]; metformin during high-fat diet): significantly increased
Bacteroides abundance, at species level ([8]; metformin during high-fat diet): significantly increased
relative bacterial abundance by LDA scores, genus Akkermansia ([8]; metformin during high-fat diet): increased
relative bacterial abundance by LDA scores, genus Blautia ([8]; metformin during high-fat diet): increased
relative bacterial abundance by LDA scores, genus Clostridium ([8]; metformin during high-fat diet): decreased
relative bacterial abundance by LDA scores, genus Shigella ([8]; metformin during high-fat diet): increased
UniFrac distance to the group treated with high-fat diet only ([8]; metformin during high-fat diet, versus difference of the diet-change group (HFD-ND) to HFD only): larger
relative bacterial abundance, Alistipes ([8]; metformin during normal diet): increased
relative bacterial abundance, Lactobacillus iners ([8]; metformin during normal diet): relatively decreased
relative bacterial abundance, genus Akkermansia ([8]; metformin during normal diet): significantly increased
relative bacterial abundance, genus Clostridium ([8]; metformin during normal diet): significantly increased
